The results in this text go back to US8765779B2, “Tricyclic derivatives and their pharmaceutical use and compositions” (Cephalon, Inc., priority 2009, dated 2014).

Counter-ions that a name gives are not always drawn.

In the case of `O=S(=O)(c1cccc(F)c1)c1ccc2c3c(oc2c1)C1(CCCC1)NCC3` (as salt: HCl) [Example 28, 7-[(3-fluorophenyl)sulfonyl]-3,4-dihydro-2H-spiro[1-benzofuro[2,3-c]pyridine-1,1′-cyclopentane]], the melting point (as a rule, the temperature, or range, at which the solid turns liquid) was more than 250 °C. In the case of `O=S1(=O)CCC2(CC1)NCCc1c2oc2cc(S(=O)(=O)c3cccc(F)c3)ccc12` (as salt: HCl) [Example 38, 7-[(3-fluorophenyl)sulfonyl]-2′,3,3′,4,5′,6′-hexahydro-2H-spiro[1-benzofuro[2,3-c]pyridine-1,4′-thiopyran] 1′,1′-dioxide] it was 298 to 300 °C (dec.); in that of `COCC1(COC)NCCc2c1oc1cc(S(=O)(=O)c3cccc(F)c3)ccc21` (as salt: HCl) [Example 39, 7-[(3-fluorophenyl)sulfonyl]-1,1-bis(methoxymethyl)-1,2,3,4-tetrahydro[1]benzofuro[2,3-c]pyridine], 196 to 198 °C. In the case of `CC(=O)N1CCC2(CC1)NCCc1c2oc2cc(S(=O)(=O)c3cccc(F)c3)ccc12` (as salt: HCl) [Example 41, 1-{7-[(3-fluorophenyl)sulfonyl]-3,4-dihydro-1′H,2H-spiro[1-benzofuro[2,3-c]pyridine-1,4′-piperidin]-1′-yl}ethanone] it was 256 °C (dec.); in that of `CC1(C)NCCc2c1oc1ccc(S(=O)(=O)c3cccc(F)c3)cc21` (as salt: HCl) [Example 42, 6-[(3-fluorophenyl)sulfonyl]-1,1-dimethyl-1,2,3,4-tetrahydro[1]benzofuro[2,3-c]pyridine], more than 200 °C; in that of `CC(C)Oc1cccc(S(=O)(=O)c2ccc3c4c(oc3c2)C2(CCOCC2)NCC4)c1` (as salt: HCl) [Example 44, 7-{[3-(propan-2-yloxy)phenyl]sulfonyl}-2′,3,3′,4,5′,6′-hexahydro-2H-spiro[1-benzofuro[2,3-c]pyridine-1,4′-pyran]], 250 °C (dec.). The result for `O=S(=O)(c1ccc2c3c(oc2c1)C1(CCOCC1)NCC3)c1cccc(F)c1F` (as salt: HCl) [Example 475] reads 250 to 265 °C; that for `CN(C)C(=O)c1c(F)cccc1S(=O)(=O)c1ccc2c(c1)OC1CNCCC21` (stereo not shown) (as salt: HCl) [Example 476], 283 to 286 °C; that for `CNC(=O)c1c(F)cccc1S(=O)(=O)c1ccc2c(c1)OC1CNCCC21` (stereo not shown) (as salt: HCl) [Example 477], more than 200 °C. In turn, `CNC(=O)c1cccc(S(=O)(=O)c2ccc3c4c(oc3c2)CNCC4)c1` (as salt: HCl) [Example 478] registered a melting point of more than 290 °C. For the compound `CN(C)C(=O)c1c(F)cccc1S(=O)(=O)c1ccc2c3c(oc2c1)CNCC3` (as salt: HCl) [Example 479], the melting point fell in the range of 245 to 248 °C.

In turn, `COc1cc(OC)cc(S(=O)(=O)c2ccc3c(c2)OC2CNCCC32)c1` (stereo not shown) (as salt: HCl) [Example 480] came in with a melting point of 248 to 251 °C. In the case of `CC(C)Oc1cccc(S(=O)(=O)c2ccc3c(c2)OC2CNCCC32)c1F` (stereo not shown) (as salt: HCl) [Example 481] it was 221 to 223 °C; in that of `O=S(=O)(c1ccc2c(c1)OC1CNCCC21)c1cccc(OCC2CCOCC2)c1F` (stereo not shown) (as salt: HCl) [Example 482], 175 to 177 °C. The result for `CC(C)Oc1cccc(S(=O)(=O)c2ccc3c(c2)OC2CNCCC32)c1F` (stereo not shown) (as salt: HCl) [Example 483] reads 221 to 224 °C; that for `O=S(=O)(c1cc(F)cc(OCc2ccccc2)c1)c1ccc2c(c1)OC1CNCCC21` (stereo not shown) (as salt: HCl) [Example 484], 171 to 172 °C. The result for `O=S(=O)(c1ccc2c(c1)OC1CNCCC21)c1cccc(OCC2CCOCC2)c1Cl` (stereo not shown) (as salt: HCl) [Example 485] reads 185 to 187 °C. Turning to `COc1c(F)cc(F)cc1S(=O)(=O)c1ccc2c(c1)OC1CNCCC21C` (stereo not shown) (as salt: HCl) [Example 486], the melting point fell in the range of 259 to 261 °C. The result for `COc1cc(OC)cc(S(=O)(=O)c2ccc3c(c2)OC2CNCCC32C)c1` (stereo not shown) (as salt: HCl) [Example 487] reads 283 to 285 °C; that for `CC12CCNCC1Oc1cc(S(=O)(=O)c3cccc(F)c3F)ccc12` (stereo not shown) (as salt: HCl) [Example 488], 202 to 204 °C. The result for `COc1cc(OC)cc(S(=O)(=O)c2ccc3c(c2)OC2CNCCC32C)c1` (stereo not shown) (as salt: HCl) [Example 489] reads 254 to 255 °C. `COc1cc(OC)cc(S(=O)(=O)c2ccc3c(c2)OC2CNCCC32C)c1` (stereo not shown) (as salt: HCl) [Example 490]: the melting point was in the range of 250 to 252 °C. Regarding `CC(C)C(=O)NCC1(C)NCCc2c1oc1cc(S(=O)(=O)c3cccc(F)c3)ccc21` (stereo not shown) (as salt: HCl) [Example 491, N-[7-(3-Fluoro-benzenesulfonyl)-1-methyl-1,2,3,4-tetrahydro-benzofuro[2,3-c]pyridin-1-ylmethyl]-isobutyramide], the melting point is 220 to 225 °C (dec.). `C#CCOc1cccc(S(=O)(=O)c2ccc3c(c2)OC2CNCCC32)c1` (stereo not shown) (as salt: HCl) [Example 549]: the melting point was 174 to 175 °C. In the case of `N#Cc1ccccc1COc1cccc(S(=O)(=O)c2ccc3c(c2)OC2CNCCC32)c1` (stereo not shown) (as salt: HCl) [Example 550] it was 194 to 195 °C; in that of `N#Cc1ccc(COc2cccc(S(=O)(=O)c3ccc4c(c3)OC3CNCCC43)c2)cc1` (stereo not shown) (as salt: HCl) [Example 551], 203 to 204 °C; in that of `N#Cc1cccc(COc2cccc(S(=O)(=O)c3ccc4c(c3)OC3CNCCC43)c2)c1` (stereo not shown) (as salt: HCl) [Example 552], 200 to 201 °C.

As for `O=S(=O)(c1cccc(OCC2CCCCO2)c1)c1ccc2c(c1)OC1CNCCC21` (stereo not shown) (as salt: HCl) [Example 553], the melting point lay in the range of 192 to 194 °C. In the case of `CCCCOc1cccc(S(=O)(=O)c2ccc3c(c2)OC2CNCCC32)c1` (stereo not shown) (as salt: HCl) [Example 554] it was 206 to 208 °C. In the case of `O=S(=O)(c1cccc(OCC2CC2)c1)c1ccc2c(c1)OC1CNCCC21` (stereo not shown) (as salt: HCl) [Example 555] it was 208 to 210 °C; in that of `COC(=O)CCCCOc1cccc(S(=O)(=O)c2ccc3c(c2)OC2CNCCC32)c1` (stereo not shown) (as salt: HCl) [Example 556], 179 to 181 °C. In the case of `CCCCCOc1cccc(S(=O)(=O)c2ccc3c(c2)OC2CNCCC32)c1` (stereo not shown) (as salt: HCl) [Example 557] it was 199 to 201 °C; in that of `COCCOc1cccc(S(=O)(=O)c2ccc3c(c2)OC2CNCCC32)c1` (stereo not shown) (as salt: HCl) [Example 558], 210 to 213 °C; in that of `O=S(=O)(c1cccc(OCc2cccnc2)c1)c1ccc2c(c1)OC1CNCCC21` (stereo not shown) (as salt: HCl) [Example 559], 167 to 171 °C. `Cn1cnc(COc2cccc(S(=O)(=O)c3ccc4c(c3)OC3CNCCC43)c2)n1` (stereo not shown) (as salt: HCl) [Example 560] had a melting point of 187 to 190 °C. In the case of `O=S(=O)(c1cccc(OCc2ccncc2)c1)c1ccc2c(c1)OC1CNCCC21` (stereo not shown) (as salt: HCl) [Example 561] it was 182 to 185 °C; in that of `O=S(=O)(c1cccc(OCc2ccccn2)c1)c1ccc2c(c1)OC1CNCCC21` (stereo not shown) (as salt: HCl) [Example 562], 179 to 182 °C.
